Like-named read-outs stand apart in the source and are kept apart here.
Legend:
Type in all cases: cell-based, human
[1] = tested on: MCF-7 (Breast cancer cell line); experiment: Anti-proliferative assay (Cell Titer-Glo), MCF-7
[2] = tested on: HeLa (Cervical cancer cell line); experiment: Anti-proliferative assay (Cell Titer-Glo), HeLa
[3] = tested on: SKOV3 (Ovarian cancer cells); experiment: Anti-proliferative assay, SKOV3
[4] = tested on: DU-145 (Prostate cancer cell line); experiment: Anti-proliferative assay (Cell Titer-Glo), DU-145
Procedure: Cell culture & Reagents: All cell lines, used for the anti-proliferative screen, were obtained from American Type Culture Collection (ATCC). HeLa (Cervical cancer cell line), MCF-7 (Breast cancer cell line) and DU-145 (Prostate cancer cell line) were cultured in Dulbecco's modified Eagle's medium (DMEM, GIBCO), containing 10% fetal bovine serum (FBS; Life Technologies), penicillin and streptomycin (10,000 U/mL), at 37° C. and in 5% CO2. Cell Titer-Glo® Luminescent Cell Viability Assay kit (Cat No. G7573) was purchased from Promega to determine the number of viable cells in culture based on quantitation of the ATP present, which signals the presence of metabolically active cells.
Anti-Proliferative assay: For anti-proliferative screening, 2500 cells per well (For HeLa and DU-145 cell lines) and 5000 cells per well (for MCF-7 cell line) numbers of cells were seeded in a white opaque plate and incubated for 24 Hrs in 5% CO2 incubator at 37° C. After 24 Hrs, compound dilutions were prepared as per the required concentrations in cell culture medium (DMEM) and diluted compounds were added and incubated with cells for 72 Hrs at 37° C. in 5% CO2 incubator in the same 96 well-plate. After 72 Hrs, Cell Titer-Glo® reagent vial was reconstituted with 100 mL of Cell Titer Glo buffer and 100 μL of prepared reagent was added to each well. After incubating at room temperature for 30 minutes, luminescence was captured using luminescence plate reader (EnVision® Multilabel Plate Reader from Perkin Elmer). Generated data was exported to the excel file and data was analyzed using Graph Pad Prism to calculate IC50 value of the unknown inhibitor.
Compounds were screened against different cancer cell lines [HeLa, DU-145, MCF-7 and SKOV3] for anti-proliferative activity using luminescence based cell proliferation assay using Promega Glo kit are shown in FIG. 3.

[5] = Table 1, reference compounds, read-out: IC50 DU-145 cells

IC50 ([1]; Homo sapiens, MCF7, Table 1, reference compounds, read-out: IC50 MCF-7 cells) [nM]	IC50 ([1]; Homo sapiens, MCF7, Table 2, reference compounds section, read-out: MCF-7 IC50) [nM]	IC50 ([2]; Homo sapiens, HeLa, Table 1, reference compounds, read-out: IC50 HeLa cells) [nM]	IC50 ([2]; Homo sapiens, HeLa, Table 2, reference compounds section, read-out: HeLa IC50) [nM]	IC50 ([3]; Homo sapiens, SK-OV-3, Table 1, reference compounds, read-out: IC50 SKOV3 cells) [nM]	IC50 ([3]; Homo sapiens, SK-OV-3, Table 2, reference compounds section, read-out: SKOV3 IC50) [nM]	IC50 ([4]; Homo sapiens, DU-145, Table 1, reference compounds, read-out: IC50 DU-145 cells) [nM]	IC50 ([4]; Homo sapiens, DU-145, Table 2, reference compounds section, read-out: DU-145 IC50) [nM]	SMILES	IC50 [4, 5] [nM]	IC50 ([1]; Table 1, reference compounds, read-out: IC50 MCF-7 cells) [nM]	IC50 ([2]; Table 1, reference compounds, read-out: IC50 HeLa cells) [nM]	IC50 ([3]; Table 1, reference compounds, read-out: IC50 SKOV3 cells) [nM]
408	254	619	387	296	296	967	382	COc1ccc(C[C@H](N)C(=O)N[C@H]2[C@@H](O)[C@H](n3cnc4c(N(C)C)ncnc43)O[C@@H]2CO)cc1 [Puromycin]				
								O=C(CCCCCCC(=O)Nc1ccccc1)NO [SAHA]	796			
								CC(/C=C/C(=O)NO)=C\[C@@H](C)C(=O)c1ccc(N(C)C)cc1 [TSA, Trichostatin A]	539	153	124	242

Reference: patent US11072583B2, “Indole (sulfomyl) n-hydroxy benzamide derivatives as selective HDAC inhibitors” (COUNCIL OF SCIENTIFIC & INDUSTRIAL RESEARCH, priority 2017, dated 2021)
